According to US20110009387A1, “HISTONE H2AX (HH2AX) BIOMARKER FOR FTI SENSITIVITY” (priority 2007, published 2011):
Blank lines part the entries; values can stand above or below the compound they belong to.

What was measured:
sensitive cell lines = test: Western blot of phospho-histone H2Ax induction; format: cell-based; settings: 72 hours, 1000 nM
Method: (§1) The induction of phospho-histone H2Ax was analyzed by comparing the cellular expression levels of the phosphoprotein following exposure of cells to both DMSO (blank) and lonafarnib. The levels were evaluated by western blot. The quantity of induced phosphoprotein was determined qualitatively and by using densitometric analysis of bands on the blot.
(§2) Western blot protein analysis. Cells were lysed in RIPA buffer (50 mM Tris-HCl, 50 mM NaCl, 1% NP40, 0.5% Na-deoxycholate, 1 mM EDTA, 2.5 mM Na3VO4, 20 mM beta-glycerol phosphate, and complete protease inhibitor) and cleared by centrifugation. Protein concentration was determined using BCA reagent. Samples were separated by 14% SDS-PAGE, transferred to polyvinylidene difluoride (PVDF) membrane, immunoblotted and detected by chemiluminescence using the ECL detection reagents. Polyclonal antibodies used: Histone H2Ax and phos-Histone H2Ax (ser-139) (Cell Signaling Technology, Inc.; Danvers, Mass.). Densitometry was analyzed utilizing Quantity One software (Bio-Rad; Hercules, Calif.). Cells that were analyzed for inducation of phospho-H2Ax by western blot analysis were initially plated on plastic and then treated for 72 hours with 1000 nM of the FTI.

MDA435 = test: Soft agar growth assay (colony area); format: cell-based; design: key to Cells designated sensitive (S) or resistant (R) to lonafarnib: sensitive (S); resistant (R); settings: MDA435, breast
Method: (§3) Cells were grown in soft agar and the IC50 for lonafarnib was determined. Cells were designated sensitive (S) or resistant (R). The IC50 value was determined by comparing colony areas of the cell lines exposed to the various doses of FTI. IC50 values were calculated with the XLfit program (idbs; Guildford, United Kingdom).
(§4) Growth assays. Soft agar assays were performed in 6-well dishes by seeding 10,000-20,000 cells in each well. Cells were plated in top 0.35% low melting point agarose in DMEM:F12 with 10% fetal bovine serum over a bottom 0.6% agarose feeding layer. Cells were grown in the presence of lonafarnib for 14 days and colonies were stained with 1 mg/ml MIT (dimethylthiazol-diphenyl-terrazolium bromide) in PBS. The plates were scanned and the colony area was determined as the sum of the areas stained by MTT.

DLD-1 [1] = test: Soft agar growth assay (colony area); format: cell-based; design: key to Cells designated sensitive (S) or resistant (R) to lonafarnib: sensitive (S); resistant (R); settings: DLD-1, colon
Method: as §3, §4

DU145 [2] = test: Soft agar growth assay (colony area); format: cell-based; design: key to Cells designated sensitive (S) or resistant (R) to lonafarnib: sensitive (S); resistant (R); settings: DU145, prostate
Method: as §3, §4

SKOV3 [3] = test: Soft agar growth assay (colony area); format: cell-based; design: key to Cells designated sensitive (S) or resistant (R) to lonafarnib: sensitive (S); resistant (R); settings: SKOV3, ovarian
Method: as §3, §4

MiaPaca [4] = test: Soft agar growth assay (colony area); format: cell-based; design: key to Cells designated sensitive (S) or resistant (R) to lonafarnib: sensitive (S); resistant (R); settings: pancreas
Method: as §3, §4

A2780 [5] = test: Soft agar growth assay (colony area); format: cell-based; design: key to Cells designated sensitive (S) or resistant (R) to lonafarnib: sensitive (S); resistant (R); settings: A2780, ovarian
Method: as §3, §4

LNCap [6] = test: Soft agar growth assay (colony area); format: cell-based; design: key to Cells designated sensitive (S) or resistant (R) to lonafarnib: sensitive (S); resistant (R); settings: prostate
Method: as §3, §4

AsPc1 [7] = test: Soft agar growth assay (colony area); format: cell-based; design: key to Cells designated sensitive (S) or resistant (R) to lonafarnib: sensitive (S); resistant (R); settings: AsPc1, pancreas
Method: as §3, §4

T47D [8] = test: Soft agar growth assay (colony area); format: cell-based; design: key to Cells designated sensitive (S) or resistant (R) to lonafarnib: sensitive (S); resistant (R); settings: breast
Method: as §3, §4

SNB19 [9] = test: Soft agar growth assay (colony area); format: cell-based; design: key to Cells designated sensitive (S) or resistant (R) to lonafarnib: sensitive (S); resistant (R); settings: SNB19, glioma
Method: as §3, §4

TOV112D [10] = test: Soft agar growth assay (colony area); format: cell-based; design: key to Cells designated sensitive (S) or resistant (R) to lonafarnib: sensitive (S); resistant (R); settings: ovarian
Method: as §3, §4

HT29 [11] = test: Soft agar growth assay (colony area); format: cell-based; design: key to Cells designated sensitive (S) or resistant (R) to lonafarnib: sensitive (S); resistant (R); settings: HT29, colon
Method: as §3, §4

Panc1 [12] = test: Soft agar growth assay (colony area); format: cell-based; design: key to Cells designated sensitive (S) or resistant (R) to lonafarnib: sensitive (S); resistant (R); settings: Panc1, pancreas
Method: as §3, §4

Colo205 [13] = test: Soft agar growth assay (colony area); format: cell-based; design: key to Cells designated sensitive (S) or resistant (R) to lonafarnib: sensitive (S); resistant (R); settings: Colo205, colon
Method: as §3, §4

SNB75 [14] = test: Soft agar growth assay (colony area); format: cell-based; design: key to Cells designated sensitive (S) or resistant (R) to lonafarnib: sensitive (S); resistant (R); settings: SNB75, glioma
Method: as §3, §4

DLD-1 [15] = test: Western blot of phospho-histone H2Ax induction; format: cell-based; settings: 72 hours, 1000 nM FTI vs DMSO, densitometry
Method: as §1, §2

DU145 [16] = test: Western blot of phospho-histone H2Ax induction; format: cell-based; settings: 72 hours, 1000 nM FTI vs DMSO, densitometry
Method: as §1, §2

SKOV3 [17] = test: Western blot of phospho-histone H2Ax induction; format: cell-based; settings: 72 hours, 1000 nM FTI vs DMSO, densitometry
Method: as §1, §2

MiaPaca [18] = test: Western blot of phospho-histone H2Ax induction; format: cell-based; settings: 72 hours, 1000 nM FTI vs DMSO, densitometry
Method: as §1, §2

A2780 [19] = test: Western blot of phospho-histone H2Ax induction; format: cell-based; settings: 72 hours, 1000 nM FTI vs DMSO, undetectable basal level
Method: as §1, §2

LNCap [20] = test: Western blot of phospho-histone H2Ax induction; format: cell-based; settings: 72 hours, 1000 nM FTI vs DMSO, densitometry
Method: as §1, §2

AsPc1 [21] = test: Western blot of phospho-histone H2Ax induction; format: cell-based; settings: 72 hours, 1000 nM FTI vs DMSO, densitometry
Method: as §1, §2

MDA-435 = test: Western blot of phospho-histone H2Ax induction; format: cell-based; settings: 72 hours, 1000 nM FTI vs DMSO, densitometry
Method: as §1, §2

T47D [22] = test: Western blot of phospho-histone H2Ax induction; format: cell-based; settings: 72 hours, 1000 nM FTI vs DMSO, densitometry
Method: as §1, §2

SNB19 [23] = test: Western blot of phospho-histone H2Ax induction; format: cell-based; settings: 72 hours, 1000 nM FTI vs DMSO, undetectable basal level
Method: as §1, §2

TOV112D [24] = test: Western blot of phospho-histone H2Ax induction; format: cell-based; settings: 72 hours, 1000 nM FTI vs DMSO, undetectable basal level
Method: as §1, §2

HT29 [25] = test: Western blot of phospho-histone H2Ax induction; format: cell-based; settings: 72 hours, 1000 nM FTI vs DMSO, densitometry
Method: as §1, §2

Panc1 [26] = test: Western blot of phospho-histone H2Ax induction; format: cell-based; settings: 72 hours, 1000 nM FTI vs DMSO
Method: as §1, §2

Colo205 [27] = test: Western blot of phospho-histone H2Ax induction; format: cell-based; settings: 72 hours, 1000 nM FTI vs DMSO
Method: as §1, §2

SNB75 [28] = test: Western blot of phospho-histone H2Ax induction; format: cell-based; settings: 72 hours, 1000 nM FTI vs DMSO, densitometry
Method: as §1, §2

MCF7 = test: Soft agar growth assay (colony area); format: cell-based, human; design: key to Cells designated sensitive (S) or resistant (R) to lonafarnib: sensitive (S); resistant (R); settings: MCF7, breast
Method: as §3, §4

MCF-7 = test: Western blot of phospho-histone H2Ax induction; format: cell-based, human; settings: 72 hours, 1000 nM FTI vs DMSO, undetectable basal level
Method: as §1, §2

[29] = Homo sapiens, 336 h, 14 days, read-out: Lonafarnib IC50

SMILES: NC(=O)N1CCC(CC(=O)N2CCC(C3c4ncc(Br)cc4CCc4cc(Cl)cc(Br)c43)CC2)CC1 (single isomer, unassigned) [inactive enantiomer of lonafarnib]
phosphorylation of histone-H2Ax upon treatment (sensitive cell lines): does not induce

IC50 (DLD-1 [1]; [29]): 320 nM | IC50 (DU145 [2]; Homo sapiens, DU-145, 336 h, 14 days, read-out: Lonafarnib IC50): 1600 nM | IC50 (SKOV3 [3]; Homo sapiens, SK-OV-3, 336 h, 14 days, read-out: Lonafarnib IC50): 2000 nM | IC50 (MiaPaca [4]; Homo sapiens, MIA PaCa-2, 336 h, 14 days, read-out: Lonafarnib IC50): 240 nM | IC50 (A2780 [5]; [29]): 80 nM | IC50 (LNCap [6]; [29]): 10 nM | IC50 (AsPc1 [7]; [29]): 1000 nM | IC50 (T47D [8]; [29]): 1800 nM | IC50 (HT29 [11]; Homo sapiens, HT-29, 336 h, 14 days, read-out: Lonafarnib IC50): 940 nM | IC50 (Panc1 [12]; Homo sapiens, PANC-1, 336 h, 14 days, read-out: Lonafarnib IC50): 440 nM | IC50 (Colo205 [13]; Homo sapiens, COLO 205, 336 h, 14 days, read-out: Lonafarnib IC50): 330 nM | IC50 (MCF7; [29]): 10 nM
SMILES: NC(=O)N1CCC(CC(=O)N2CCC([C@H]3c4ncc(Br)cc4CCc4cc(Cl)cc(Br)c43)CC2)CC1 [Lonafarnib, lonafarnib]
IC50 (MDA435; 336 h, 14 days, read-out: Lonafarnib IC50): 350 nM | Cells designated sensitive (S) or resistant (R) to lonafarnib (MDA435): (S) | Cells designated sensitive (S) or resistant (R) to lonafarnib (DLD-1 [1]): (S) | Cells designated sensitive (S) or resistant (R) to lonafarnib (DU145 [2]): (R) | Cells designated sensitive (S) or resistant (R) to lonafarnib (SKOV3 [3]): (R) | Cells designated sensitive (S) or resistant (R) to lonafarnib (MiaPaca [4]): (S) | Cells designated sensitive (S) or resistant (R) to lonafarnib (A2780 [5]): (S) | Cells designated sensitive (S) or resistant (R) to lonafarnib (LNCap [6]): (S) | Cells designated sensitive (S) or resistant (R) to lonafarnib (AsPc1 [7]): (R) | Cells designated sensitive (S) or resistant (R) to lonafarnib (T47D [8]): (R) | IC50 (SNB19 [9]; Homo sapiens, SNB-19, 336 h, 14 days, read-out: Lonafarnib IC50): 230 nM | Cells designated sensitive (S) or resistant (R) to lonafarnib (SNB19 [9]): (S) | IC50 (TOV112D [10]; [29]): 100 nM | Cells designated sensitive (S) or resistant (R) to lonafarnib (TOV112D [10]): (S) | Cells designated sensitive (S) or resistant (R) to lonafarnib (HT29 [11]): (R) | Cells designated sensitive (S) or resistant (R) to lonafarnib (Panc1 [12]): (S) | Cells designated sensitive (S) or resistant (R) to lonafarnib (Colo205 [13]): (S) | IC50 (SNB75 [14]; Homo sapiens, SNB-75, 336 h, 14 days, read-out: Lonafarnib IC50): > 3000 nM | Cells designated sensitive (S) or resistant (R) to lonafarnib (SNB75 [14]): (R) | induction of phospho-histone H2Ax (DLD-1 [15]): 4.3 fold | induction of phospho-histone H2Ax (difference in OD values) (DU145 [16]): 1 fold | induction of phospho-histone H2Ax (difference in OD values) (SKOV3 [17]): 1 fold | induction of phospho-histone H2Ax (MiaPaca [18]): 2.3 fold | phospho-histone H2Ax expression upon treatment (A2780 [19]): induced to detectable levels | induction of phospho-histone H2Ax (LNCap [20]): 2.2 fold | induction of phospho-histone H2Ax (difference in OD values) (AsPc1 [21]): 1 fold | induction of phospho-histone H2Ax (MDA-435): 6.5 fold | induction of phospho-histone H2Ax (difference in OD values) (T47D [22]): 1 fold | phospho-histone H2Ax expression upon treatment (SNB19 [23]): induced to detectable levels | phospho-histone H2Ax expression upon treatment (TOV112D [24]): induced to detectable levels | induction of phospho-histone H2Ax (difference in OD values) (HT29 [25]): 1 fold | induction of phos-histone H2Ax upon treatment (Panc1 [26]): no detectable induction | induction of phos-histone H2Ax upon treatment (Colo205 [27]): no detectable induction | induction of phospho-histone H2Ax (difference in OD values) (SNB75 [28]): 1 fold | Cells designated sensitive (S) or resistant (R) to lonafarnib (MCF7): (S) | phospho-histone H2Ax expression upon treatment (MCF-7): induced to detectable levels
